Experimental data as given in patent US20100029643A1 (ASTRAZENECA AB, priority 2006, published 2010).
pEC50: −log10 of the molar value.

Biological target: T1, Edg-1/S1P1 receptor (Homo sapiens, UniProt P21453)
T1 construct: expressed in transfected cells; host or cells: human osteogenic sarcoma U2OS cells: Edg-1 Transfluor U2OS WT Clone #37 (assay I), Edg-1 Transfluor U2OS Clone #3 (assay II)
Assay: In vitro cell based receptor activation assay - Transfluor assay (assay I or II; beta-arrestin GFP relocalization after S1P stimulation)
Conditions: for inhibition at 3.7 µM: at 3.70 μM (titrated from top concentration 100 μM)
How it was run: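 U2OS cells overexpressing S1P1 with a beta-arrestin-GFP construct were pre-incubated with compound for 15 min at room temperature, then stimulated with S1P for 45 min at 37 °C. In assay I, final S1P was 375 nM or 750 nM and compound was a 9-point 3-fold series from 100 μM, in 1% DMSO. Cells were fixed and Hoechst-stained, GFP relocalization was imaged, and EC50 values were fitted.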

[1] = at 3.50 μM (titrated from top concentration 10 μM)

T1 sequence (P21453 whole entry): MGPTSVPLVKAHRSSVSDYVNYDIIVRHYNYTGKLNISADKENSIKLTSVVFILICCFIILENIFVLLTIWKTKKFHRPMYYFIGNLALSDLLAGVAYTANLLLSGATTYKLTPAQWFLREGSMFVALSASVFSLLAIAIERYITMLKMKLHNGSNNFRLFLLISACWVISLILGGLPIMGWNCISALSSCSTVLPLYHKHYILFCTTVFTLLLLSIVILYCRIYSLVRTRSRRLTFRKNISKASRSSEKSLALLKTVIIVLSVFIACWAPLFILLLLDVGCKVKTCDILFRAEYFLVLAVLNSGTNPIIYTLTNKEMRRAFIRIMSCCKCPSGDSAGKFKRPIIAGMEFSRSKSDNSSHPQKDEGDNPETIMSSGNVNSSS

inhibition at 3.5 µM [1] [%]	Structure (SMILES)	further results
19.5	CCn1c([C@@H](C)NS(=O)(=O)c2ccc[n+]([O-])c2)nc2ccc(C(F)(F)F)cc21 [Example 164, (R)-3-(N-(1-(1-ethyl-6-(trifluoromethyl)-1H-benzo[d]imidazol-2-yl)ethyl)sulfamoyl)pyridine 1-oxide]	
93.9	CCn1c([C@@H](C)NS(=O)(=O)c2ccc(Cl)cc2)nc2cc3c(cc21)OCO3 [Example 63, (R)-4-Chloro-N-[1-(5-Ethyl-5H-[1,3]dioxolo[4′,5′;4,5]-benzo[1,2-d]imidazol-6-yl)-ethyl]benzenesulfonamide]	
	CCn1c(C(C)NS(=O)(=O)c2ccc(Cl)cc2)nc2c(Cl)nccc21 (stereo not drawn) [Example 94, 4-Chloro-N-[1-(4-chloro-1-ethyl-1H-imidazo[4,5-c]pyridin-2-yl)ethyl]benzenesulfonamide]	inhibition at 3.7 µM: 91.6%
96	CCn1c([C@@H](C)NS(=O)(=O)c2ccc3c(c2)OCO3)nc2ccc(C(F)(F)F)cc21 [Example 45, N-{(1R)-1-[1-Ethyl-6-(trifluoromethyl)-1H-benzimidazol-2-yl]ethyl}-1,3-benzodioxole-5-sulfonamide]	
93.3	CCn1c(C(C)NS(=O)(=O)c2ccc(Cl)cc2)nc2ncccc21 (stereo not drawn) [Example 12, 4-Chloro-N-[1-(1-ethyl-1H-imidazo[4,5-b]pyridin-2-yl)-ethyl]-benzenesulfonamide]	
95.6	CCn1c([C@@H](C)NS(=O)(=O)c2ccc(OC)nc2)nc2ccc(C(F)(F)F)cc21 [Example 109, (R)-N-(1-(1-Ethyl-6-(trifluoromethyl)-1H-benzo[d]imidazol-2-yl)ethyl)-6-methoxypyridine-3-sulfonamide]	
80.7	CCn1c([C@@H](C)NS(=O)(=O)c2ccc(OC(C)C)cc2)nc2ccc(C(F)(F)F)cc21 [Example 156]	
94.6	CCn1c([C@@H](C)NS(=O)(=O)c2ccc(F)c(C)c2)nc2ccc(C(F)(F)F)cc21 [Example 30, N-{(1R)-1-[1-Ethyl-6-(trifluoromethyl)-1H-benzimidazol-2-yl]ethyl}-4-fluoro-3-methylbenzenesulfonamide]	
	CCn1c([C@@H](C)NS(=O)(=O)c2ccc(Cl)cc2)nc2cccc(Cl)c21 [Example 86, (R)-4-Chloro-N-[1-(7-chloro-1-ethyl-1H-benzoimidazol-2-yl)ethyl]-benzenesulfonamide]	inhibition at 3.7 µM: 51.7%
87.4	CCn1c([C@@H](C)NS(=O)(=O)c2ccc(C#N)cc2)nc2ccc(C(F)(F)F)cc21 [Example 26, 4-Cyano-N-{(1R)-1-[1-ethyl-6-(trifluoromethyl)-1H-benzimidazol-2-yl]ethyl}benzenesulfonamide]	
65	CCn1c(C(C)(C)NS(=O)(=O)c2ccc(C#N)cc2)nc2cnc(C3CC3)cc21 [Example 185, 4-Cyano-N-[1-(6-cyclopropyl-1-ethyl-1H-imidazo[4,5-c]pyridin-2-yl)-1-methyl-ethyl]-benzenesulfonamide]	
88.8	CCn1c(C(C)(C)NS(=O)(=O)c2ccc(F)cc2)nc2ccc(C(F)(F)F)cc21 [Example 137, N-[1-(1-Ethyl-6-trifluoromethyl-1H-benzoimidazol-2-yl)-1-methyl-ethyl]-4-fluoro-benzenesulfonamide]	
19.8	CCn1c([C@@H](C)NS(=O)(=O)c2ccc(-c3ccccc3)cc2)nc2ccc(C(F)(F)F)cc21 [Example 159, (R)-N-(1-(1-Ethyl-6-(trifluoromethyl)-1H-benzo[d]imidazol-2-yl)ethyl)biphenyl-4-sulfonamide]	
	CC(NS(=O)(=O)c1ccc(Cl)cc1)c1nc2ccccc2n1CC1CC1 (stereo not drawn) [Example 18, 4-Chloro-N-{1-[1-(cyclopropylmethyl)-1H-benzimidazol-2-yl]ethyl}-benzenesulfonamide]	inhibition at 3.7 µM: 100%; pEC50 (one or the other of the two Transfluor assays, Edg-1 Transfluor U2OS cells, S1P ligand): 6.05
	CCn1c(C(NS(=O)(=O)c2ccc(Cl)cc2)C(C)C)nc2ccccc21 (stereo not drawn) [Example 3, 4-Chloro-N-[1-(1-ethyl-1H-benzimidazol-2-yl)-2-methyl-propyl]benzenesulfonamide]	inhibition at 3.7 µM: 59%
	CCn1c([C@@H](C)NS(=O)(=O)c2ccc(NC(=O)N(C)C)cc2)nc2ccc(C(F)(F)F)cc21 [Example 113, (R)-4-(3,3-Dimethylureido)-N-(1-(1-ethyl-6-(trifluoromethyl)-1H-benzo[d]imidazol-2-yl)ethyl)benzenesulfonamide]	% inhibition [1]: [drawing 125] (R)-4-(3,3-Dimethylureido)- N-(1-(1-ethyl-6- (trifluoromethyl)-1H- benzo[d]imidazol-2-yl)ethyl)benzenesulfonamide (Inactive at 3.50 μM)
94	CCC(NS(=O)(=O)c1ccc(Cl)cc1)c1nc2ccccc2n1CC (stereo not drawn) [Example 2, 4-Chloro-N-[1-(1-ethyl-1H-benzoimidazol-2-yl)propyl]-benzenesulfonamide]	
	CCn1c([C@@H](C)NS(=O)(=O)c2ccc(Cl)cc2)nc2cccc(F)c21 [Example 60]	inhibition at 3.7 µM: 97.7%

inhibition at 3.5 µM [1] [%]	Structure (SMILES)	further results
89.4	CCn1c([C@@H](C)NS(=O)(=O)c2ccc(C#N)cc2)nc2cnccc21 [Example 103, 4-Cyano-N-[(1R)-1-(1-ethyl-1H-imidazol[4,5-c]pyridin-2-yl)ethyl]benzenesulfonamide]	
	CCn1c(C(Cc2ccccc2)NS(=O)(=O)c2ccc(Cl)cc2)nc2ccccc21 (stereo not drawn) [Example 5, 4-Chloro-N-[1-(1-ethyl-1H-benzimidazol-2-yl)-2-phenyl-ethyl]benzenesulfonamide]	inhibition at 3.7 µM: 73.2%
82.9	CCn1c(C(C)(C)NS(=O)(=O)c2ccc(C#N)nc2)nc2ccc(C(F)(F)F)cc21 [Example 140, 6-Cyano-N-(2-(1-ethyl-6-(trifluoromethyl)-1H-0 benzo[d]imidazol-2-yl)propan-2-yl)pyridine-3-sulfonamide]	
96	CCn1c([C@@H](C)NS(=O)(=O)c2ccc(Cl)cc2)nc2cc(F)c(Cl)cc21 [Example 56, 4-Chloro-N-[(1R)-1-(6-chloro-1-ethyl-5-fluoro-1H-benzimidazol-2-yl)ethyl]benzenesulfonamide]	
82.6	CCn1c(C(C)(C)NS(=O)(=O)c2ccc(C(N)=O)nc2)nc2ccc(C(F)(F)F)cc21 [Example 141, 5-(N-(2-(1-Ethyl-6-(trifluoromethyl)-1H-benzo[d]imidazol-2-yl)propan-2-yl)sulfamoyl)picolinamide]	
93.6	CCn1c([C@@H](C)NS(=O)(=O)c2ccc(C(N)=O)n2C)nc2ccc(C(F)(F)F)cc21 [Example 158, (R)-5-(N-(1-(1-Ethyl-6-(trifluoromethyl)-1H-benzo[d]imidazol-2-yl)ethyl)sulfamoyl)-1-methyl-1H-pyrrole-2-carboxamide]	
	CCn1c([C@@H](C)NS(=O)(=O)c2ccc(Cl)cc2)nc2cc3c(cc21)OCCO3 [Example 62, 4-Chloro-N-[(1R)-1-(1-ethyl-6,7-dihydro-1H-[1,4]dioxino-[2,3-f]benzimidazol-2-yl)-ethyl]benzenesulfonamide]	inhibition at 3.7 µM: 52.2%
	CCn1c([C@@H](C)NS(=O)(=O)c2ccc(Cl)cc2)nc2cc(F)c(F)cc21 [Example 20, 4-Chloro-N-[(1R)-1-(1-ethyl-5,6-difluoro-1H-benzimidazol-2-yl)ethyl]benzenesulfonamide]	inhibition at 3.7 µM: 79.5%
83.4	CCn1c([C@@H](C)NS(=O)(=O)c2ccc(C#N)cc2)nc2cnc(C3CC3)cc21 (stereo in doubt) [Example 183, 4-Cyano-N-[1-(6-cyclopropyl-1-ethyl-1H-imidazo[4,5-c]pyridin-2-yl)-ethyl]-benzenesulfonamide]	
95.3	CCn1c([C@@H](C)NS(=O)(=O)c2ccc(F)c(F)c2F)nc2ccc(C(F)(F)F)cc21 [Example 34]	
92	CCn1c([C@@H](C)NS(=O)(=O)c2cc(C)oc2C)nc2ccc(C(F)(F)F)cc21 [Example 33, N-{(1R)-1-[1-Ethyl-6-(trifluoromethyl)-1H-benzimidazol-2-yl]ethyl}-2,5-dimethylfuran-3-sulfonamide]	
91.4	CCn1c([C@@H](C)NS(=O)(=O)c2ccc(OC)cc2)nc2ccc(C(F)(F)F)cc21 [Example 122, N-{(1R)-1-[1-Ethyl-6-(trifluoromethyl)-1H-benzimidazol-2-yl]ethyl}-4-methoxybenzenesulfonamide]	
91.1	CCn1c([C@@H](C)NS(=O)(=O)c2ccc(C#N)cc2)nc2ncc(C(F)(F)F)cc21 [Example 180, 4-Cyano-N-{(1R)-1-[1-ethyl-6-(trifluoromethyl)-1H-imidazo[4,5-b]pyridin-2-yl]ethyl}benzenesulfonamide]	
86.2	CCn1c([C@@H](C)NS(=O)(=O)c2ccc(F)cc2)nc2cnc(OC)cc21 [Example 132, (R)-N-(1-(1-Ethyl-6-methoxy-1H-imidazo[4,5-c]pyridin-2-yl)ethyl)-4-fluorobenzenesulfonamide]	
92.5	CCn1c([C@@H](C)NS(=O)(=O)c2ccc(F)nc2)nc2ccc(C(F)(F)F)cc21 [Example 107, (R)-N-(1-(1-Ethyl-6-(trifluoromethyl)-1H-benzo[d]imidazol-2-yl)ethyl)-6-fluoropyridine-3-sulfonamide]	
	CCn1c([C@@H](C)NS(=O)(=O)c2ccc(Cl)cc2)nc2cnc(Cl)cc21 [Example 97, 4-chloro-N-[(1R)-1-(6-chloro-1-ethyl-1H-imidazo[4,5-c]pyridin-2-yl)ethyl]benzenesulfonamide]	inhibition at 3.7 µM: 88.9%
90.6	CCn1c([C@@H](C)NS(=O)(=O)c2ccc(C#N)nc2)nc2ncc(C(F)(F)F)cc21 [Example 181, 6-Cyano-N-{(1R)-1-[1-ethyl-6-(trifluoromethyl)-1H-imidazo[4,5-b]pyridin-2-yl]ethyl}pyridine-3-sulfonamide]	
